The target in test [1] is BCL2 G101V (Homo sapiens, UniProt P10415, G101V). Kind of test: TR-FRET competitive binding assay, BCL2 G101V. Particulars: BCL2 G101V; Ki determined from IC50; read-out: TR_FRET EKI_Bcl2 G101V. The protocol: (§1) The relative binding potency of each compound was determined in a competitive binding assay using time resolved-fluorescence resonance energy transfer (TR-FRET). The method utilised a fluorescein labelled peptide derived from PUMA (5Flu-Ahx-[…]-NH2 wherein Ahx means 6-hexanoic acid monomer and the amino acid sequence is referred to as SEQ ID:01) which binds to a terbium labelled BCL2 or BCLXL protein. The degree of binding or corresponding compound inhibition can be quantified by the TR-FRET signal between the terbium donor and fluorescein acceptor.
(§2) The human BCL2_wild-type (also named BCL2_wt), BCL2_G101V mutant and BCLXL_wild-type were E. coli expressed as a N-terminal Halo-fusion proteins and singly labelled with Terbium on the Halo protein to afford the following amino acid sequences:
(§3) wherein the BCL2(1-207) sequence corresponds to UniProtKB® primary accession number P10415 and the BCLXL(2-196) sequence corresponds to UniProtKB® primary accession number Q07817-1.
(§4) The assay was performed in a 40 μL volume in white 384-standard well plates (Corning #3574). An 11-point serial dilution of each compound was prepared in DMSO and transferred directly to plate followed by addition of fluorescein labelled peptide and lastly protein. Final assay conditions were 0.5 nM BCL2_wt, BCL2_G101V, BCL2_D103Y, BCL2_F104I, BCL2_D111A or BCLXL_wt, 2 or 20 nM fluorescein labelled peptide, 50 mM Hepes pH 7.5, 150 mM NaCl, 0.5 mM TCEP (Tris(2-carboxyethyl)phosphine), 0.05% Tween 20, 5% DMSO. The mixture was incubated for 2 hours at 23° C.
(§5) TR-FRET measurements were performed on a Biotek Synergy Neo plate reader. TR-FRET was measured by excitation of the Terbium-donor at 340 nm and subsequent (delay time 100 μs) measurement of terbium and fluorescein emission at 495 nm and 520 nm, respectively, over a collection time of 300 μs. The TR-FRET signal was calculated as the emission-ratio at 520 nm over 495 nm.
(§6) The TR-FRET ratio readout for test compounds was normalized against 0% inhibition controls wells and 100% inhibition control wells. Test compound potency (IC50) was estimated by nonlinear regression using the sigmoidal dose-response (variable slope) using Xlfit 4 (IDBS, Guildford, Surrey, UK, model 205). Were the IC50 could not be determined the % inhibition at the highest tested concentration is given.
(§7) y=(A+((B−A)/(1+((C/x)^D))))
(§8) where y is the normalized TR-TRET ratio measurement for a given concentration of test compound, x is the concentration of test compound, A is the estimated efficacy (% inhibition) at infinite compound dilution, and B is the maximal efficacy (% inhibition). C is the IC50 value and D is the Hill slope coefficient.
(§9) The K1 values were determined from the IC50 values according to Cer et al, Nucleic Acids Res, 2009, July 1; 37 (WebServer issue): W441-W445.
A general note: Time-resolved FRET reads energy transfer from a long-lived donor to a nearby acceptor.

Test [2] relates to KMS-12-PE Bcl-2 G101V. Kind of test: In vitro cytotoxicity CellTiter-Glo 48 h, KMS-12-PE Bcl-2 G101V. In kind it is cell-based. Particulars: for Ratio (G101V/WT): C50 KMS-12-PE Bcl-2 G101V over C50 KMS-12-PE Bcl-2 WT; for IC50: Homo sapiens, KMS-12-PE, 48 h, CellTiter-Glo, C50 = concentration needed to reach 50% of the cellular viability. The protocol: (§10) KMS-12-PE (ACC 606) were purchased from the Leibniz-Institute DSMZ (Braunschweig, Germany) and were grown at 37° C. in a humidified atmosphere with […] in media recommended by the suppliers. Lentiviral particles containing Bcl-2 wild type (also named “Bcl2 WT”) and Bcl-2 mutated on G101V (also named “Bcl2 G101V”) were cloned into pcLV-CMV-DEST-IRES-TagRFP. Lentiviral particles (1×106) were mixed with Polybrene at 8 µg/ml and transduced by spinoculation for 1 h at 32° C. and incubated overnight. After 8 days, TagRFP positive-cells were sorted by FACS. BCL2 expression was monitored by immunoblotting using anti-Flag and anti-BCL2 antibodies.
(§11) Cellular viability was monitored with the cell viability assay (CellTiter-Glo®) on KMS-12-PE WT and G101V cell lines. The CellTiter-Glo® (CTG) Luminescent Cell Viability Assay (from Promega) is a homogeneous method to determine the number of viable cells in culture based on quantitation of the ATP present, which signals the presence of metabolically active cells.
(§12) Dose response of compounds are performed with 10 mM stock solutions (DMSO), 11-points curve, in a 384-well compound plate. The assay plate is prepared by stamping 40 nL from compound dilution plate of all different concentrations (e.g. 10 mM to have final […] assay test) into a cell culture microplate, using Echo acoustic liquid handling (Labcyte, Beckman). 40 μl of cell solution is added and cells are incubated with compounds for 48 h at 37° C., 5% CO2. CTG was added to the cells (according to the manufacturer instructions) and luminescence intensity was recorded using the Pherastar plate reader (BMG).
(§13) This assay provides in vitro cellular potency of the tested Bcl-2 inhibitors, measuring the C50, defined as the concentration needed to reach 50% of the cellular viability.
Background: ATP-based viability assays read luminescence as a measure of living cells.

In test [3] the target is BCL2 WT (Homo sapiens (Human), UniProt P10415). Kind of test: TR-FRET competitive binding assay, BCL2 WT. Particulars: Ki determined from IC50, read-out: TR_FRET EKI_Bcl2 WT. The protocol:
as §1, §2, §3, §4, §5, §6, §7, §8, §9

The test system of test [4] is KMS-12-PE Bcl-2 WT. Kind of test: In vitro cytotoxicity CellTiter-Glo 48 h, KMS-12-PE Bcl-2 WT. Format: cell-based. Particulars: Homo sapiens, KMS-12-PE, C50 = concentration needed to reach 50% of the cellular viability. How it is done: as §10, §11, §12, §13
The target in test [5] is BCLXL WT (Homo sapiens (Human), UniProt Q07817). Kind of test: TR-FRET competitive binding assay, BCLXL WT. Particulars: for Ki: BCLXL WT, Ki determined from IC50, read-out: TR_FRET EKI BclxL; for TR_FRET EKI BCLxL/WT selectivty ratio: ratio Ki BCLxL / Ki BCL2 WT. The protocol: as §1, §2, §3, §4, §5, §6, §7, §8, §9
Sequence of BCLXL WT (Q07817 other isoform, or with tags, fused parts or gaps): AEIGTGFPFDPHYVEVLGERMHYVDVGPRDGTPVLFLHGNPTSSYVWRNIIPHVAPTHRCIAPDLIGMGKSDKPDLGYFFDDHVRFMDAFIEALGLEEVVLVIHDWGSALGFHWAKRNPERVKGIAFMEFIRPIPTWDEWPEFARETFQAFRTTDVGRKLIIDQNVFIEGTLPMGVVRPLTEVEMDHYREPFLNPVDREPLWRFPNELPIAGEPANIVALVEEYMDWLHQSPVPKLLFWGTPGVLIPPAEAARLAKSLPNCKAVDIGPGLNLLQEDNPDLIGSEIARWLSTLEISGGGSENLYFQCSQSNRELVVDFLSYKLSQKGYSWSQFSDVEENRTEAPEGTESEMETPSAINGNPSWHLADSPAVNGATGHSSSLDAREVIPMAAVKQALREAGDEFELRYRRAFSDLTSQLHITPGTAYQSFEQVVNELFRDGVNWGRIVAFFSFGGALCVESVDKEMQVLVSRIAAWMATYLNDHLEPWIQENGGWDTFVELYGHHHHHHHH
The target in test [6] is BCL2 D103Y (Homo sapiens, UniProt P10415, D103Y). Kind of test: TR-FRET competitive binding assay, BCL2 D103Y. Particulars: Ki determined from IC50, read-out: TR_FRET EKI_Bcl2 D103Y. How it is done:
as §1, §2, §3, §4, §5, §6, §7, §8, §9

`COCc1ccc(CC(=O)N2CCc3cc(-c4cc(C(=O)N(c5ccc(O)cc5)c5cc(C#N)n(C)c5C)c(C)n4C)c(C(=O)N4Cc5ccccc5C[C@H]4C)cc3C2)cc1` [Example 87, N-(5-cyano-1,2-dimethyl-1H-pyrrol-3-yl)-N-(4-hydroxyphenyl)-5-(2-{2-[4-(methoxymethyl)phenyl]acetyl}-7-[(3R)-3-methyl-1,2,3,4-tetrahydroisoquinoline-2-carbonyl]-1,2,3,4-tetrahydroisoquinolin-6-yl)-1,2-dimethyl-1H-pyrrole-3-carboxamide]: the Ki in test [1] turned out to be 0.5 nM; in test [3], 0.12 nM; in test [5], 1.3 nM; in test [6], 0.46 nM. Also, in test [2], the “Ratio (G101V/WT)” value is on record as 5.43. In addition, the IC50 in test [2] came out at 0.0394 µM; in test [4], 0.0073 µM. Also, the “TR_FRET EKI BCLxL/WT selectivty ratio” value in test [5] was determined as 10.8.

For the compound `Cc1c(N(C(=O)c2cc(-c3cc4c(cc3C(=O)N3Cc5ccccc5C[C@H]3CN3CCC[C@@H]3C)CN(C(=O)Cc3ccc(OCCN5CCOCC5)cc3F)CC4)n(C)c2C)c2ccc(O)cc2)cc(C#N)n1C` [Example 173, N-(5-cyano-1,2-dimethylpyrrol-3-yl)-5-[2-(2-{2-fluoro-4-[2-(morpholin-4-yl)ethoxy]phenyl}acetyl)-7-{[(3S)-3-{[(2S)-2-methylpyrrolidin-1-yl]methyl}-3,4-dihydro-1H-isoquinolin-2-yl]carbonyl}-3,4-dihydro-1H-isoquinolin-6-yl]-N-(4-hydroxyphenyl)-1,2-dimethylpyrrole-3-carboxamide], the Ki is 0.3 nM in test [1], 0.03 nM in test [3], 4 nM in test [5] and 0.12 nM in test [6]. Also, in test [2], the “Ratio (G101V/WT)” value was found to be 5.5095. Moreover, the IC50 in test [2] came to 0.0465 µM; in test [4], 0.0084 µM. Moreover, in test [5], the “TR_FRET EKI BCLxL/WT selectivty ratio” value came to 133.3.

For the compound `Cc1c(C(=O)N(c2ccc(O)cc2)c2cnn(C(F)F)c2)cc(-c2cc3c(cc2C(=O)N2Cc4ccccc4C[C@H]2C)CN(C(=O)Cc2ccc(OCCN4CCOCC4)cc2F)CC3)n1C` [Example 186, N-[1-(difluoromethyl)pyrazol-4-yl]-5-[2-[2-[2-fluoro-4-(2-morpholinoethoxy)phenyl]acetyl]-7-[(3R)-3-methyl-3,4-dihydro-1H-isoquinoline-2-carbonyl]-3,4-dihydro-1H-isoquinolin-6-yl]-N-(4-hydroxyphenyl)-1,2-dimethyl-pyrrole-3-carboxamide], the Ki in test [1] turned out to be 0.2 nM; in test [3], 0.01 nM; in test [5], 5.3 nM; in test [6], 0.04 nM. Moreover, 0.0047 µM corresponded to half-maximal inhibition in test [4] (IC50). The “TR_FRET EKI BCLxL/WT selectivty ratio” value in test [5] is on record as 410.0.

In the case of `COc1ncc(N(C(=O)c2cc(-c3cc4c(cc3C(=O)N3Cc5ccccc5C[C@H]3C)CN(C(=O)Cc3cccc(N5CC6(CN(C)C6)C5)c3)CC4)n(C)c2C)c2ccccc2)cc1F` [Example 198, N-(5-fluoro-6-methoxy-3-pyridyl)-1,2-dimethyl-5-[2-[2-[3-(6-methyl-2,6-diazaspiro[3.3]heptan-2-yl)phenyl]acetyl]-7-[(3R)-3-methyl-3,4-dihydro-1H-isoquinoline-2-carbonyl]-3,4-dihydro-1H-isoquinolin-6-yl]-N-phenyl-pyrrole-3-carboxamide], the Ki in test [1] was determined as 1.4 nM; in test [3], 0.01 nM; in test [5] it was 0.6 nM; in test [6] it was 0.07 nM. The same compound came in with an IC50 in test [4] of 0.0349 µM. Moreover, the “TR_FRET EKI BCLxL/WT selectivty ratio” value in test [5] is 58.6.

As to `Cc1c(C(=O)N(c2ccccc2)c2cnn(C(F)F)c2)cc(-c2cc3c(cc2C(=O)N2Cc4ccccc4C[C@H]2C)CN(C(=O)Cc2ccc(OCCN(C)C)cc2)CC3)n1C` [Example 199, N-[1-(difluoromethyl)pyrazol-4-yl]-5-[2-[2-[4-[2-(dimethylamino)ethoxy]phenyl]acetyl]-7-[(3R)-3-methyl-3,4-dihydro-1H-isoquinoline-2-carbonyl]-3,4-dihydro-1H-isoquinolin-6-yl]-1,2-dimethyl-N-phenyl-pyrrole-3-carboxamide], the Ki worked out at 4.6 nM in test [1], 0.08 nM in test [3], 8.8 nM in test [5] and 0.19 nM in test [6]. Further, the IC50 in test [4] stood at 0.0244 µM. Moreover, in test [5], the “TR_FRET EKI BCLxL/WT selectivty ratio” value turned out to be 116.3.

As for `COc1ncc(N(C(=O)c2cc(-c3cc4c(cc3C(=O)N3Cc5ccccc5C[C@H]3C)CN(C(=O)Cc3ccc(OCCN5CCOCC5)cc3)CC4)n(C)c2C)c2ccccc2)cc1C#N` [Example 201, N-(5-cyano-6-methoxy-3-pyridyl)-1,2-dimethyl-5-[7-[(3R)-3-methyl-3,4-dihydro-1H-isoquinoline-2-carbonyl]-2-[2-[4-(2-morpholinoethoxy)phenyl]acetyl]-3,4-dihydro-1H-isoquinolin-6-yl]-N-phenyl-pyrrole-3-carboxamide], the Ki in test [1] stood at 1.2 nM; in test [3], 0.05 nM; in test [5], 16.4 nM; in test [6] it was 0.09 nM. Also, the IC50 in test [4] was determined as 0.0394 µM. Besides, in test [5], the “TR_FRET EKI BCLxL/WT selectivty ratio” value is listed as 322.5.

In test [4], `Cc1c(N(C(=O)c2cc(-c3cc4c(cc3C(=O)N3Cc5ccccc5C[C@H]3C)CN(C(=O)Cc3cccc(N5CCCN(C)CC5)c3)CC4)n(C)c2C)c2ccc(O)cc2)cc(C#N)n1C` [Example 231] came in with an IC50 of 0.0391 µM.

As to `Cc1c(N(C(=O)c2cc(-c3cc4c(cc3C(=O)N3Cc5ccccc5C[C@H]3C)CN(C(=O)Cc3ccc(OCCC5CCN(C)CC5)nc3)CC4)n(C)c2C)c2ccc(O)cc2)cc(C#N)n1C` [Example 232], in test [2], the “Ratio (G101V/WT)” value is 2.0. In addition, the IC50 in test [2] was 0.0657 µM; in test [4], 0.0328 µM.

In general, IC50 refers to the concentration that gives 50% inhibition. Read a high IC50 as lower potency.

The record behind these values is US20250179047A1, “5-[7-(3,4-DIHYDRO-1H-ISOQUINOLINE-2-CARBONYL)-1,2,3,4 TETRAHYDROISOQUINOLIN-6-YL]-1H-PYRROLE-3-CARBOXAMIDE DERIVATIVES, PHARMACEUTICAL COMPOSITIONS CONTAINING THEM AND THEIR USES AS PRO-APOPTOTIC AGENTS” (LES LABORATOIRES SERVIER, priority 2022, published 2025).
